Measured values taken from patent EP0912534B1, “MUSCARINIC ANTAGONISTS” (SCHERING CORPORATION, priority 1996, dated 1998).
Read-outs that look alike come from different tables or passages of the source.

Legend:
[1] = target: T1, cloned human m1 muscarinic receptor (Homo sapiens, UniProt P11229); experiment: Muscarinic binding activity (3H-QNB displacement), m1
T1 sequence (P11229 1-460): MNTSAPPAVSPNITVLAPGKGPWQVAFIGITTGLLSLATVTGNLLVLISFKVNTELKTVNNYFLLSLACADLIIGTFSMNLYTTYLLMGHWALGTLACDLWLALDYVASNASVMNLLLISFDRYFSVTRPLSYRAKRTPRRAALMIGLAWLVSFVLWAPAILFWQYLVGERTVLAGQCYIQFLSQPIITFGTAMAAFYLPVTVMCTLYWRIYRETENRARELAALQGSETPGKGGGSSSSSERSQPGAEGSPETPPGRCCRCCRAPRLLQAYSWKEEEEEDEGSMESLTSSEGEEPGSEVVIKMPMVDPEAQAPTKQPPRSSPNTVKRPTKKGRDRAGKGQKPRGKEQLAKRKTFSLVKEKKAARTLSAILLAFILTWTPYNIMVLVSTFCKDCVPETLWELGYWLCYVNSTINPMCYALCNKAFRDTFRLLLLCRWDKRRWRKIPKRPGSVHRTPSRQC

[2] = target: T2, cloned human m4 muscarinic receptor (Homo sapiens, UniProt P08173); experiment: Muscarinic binding activity (3H-QNB displacement), m4
T2 sequence (P08173 1-479): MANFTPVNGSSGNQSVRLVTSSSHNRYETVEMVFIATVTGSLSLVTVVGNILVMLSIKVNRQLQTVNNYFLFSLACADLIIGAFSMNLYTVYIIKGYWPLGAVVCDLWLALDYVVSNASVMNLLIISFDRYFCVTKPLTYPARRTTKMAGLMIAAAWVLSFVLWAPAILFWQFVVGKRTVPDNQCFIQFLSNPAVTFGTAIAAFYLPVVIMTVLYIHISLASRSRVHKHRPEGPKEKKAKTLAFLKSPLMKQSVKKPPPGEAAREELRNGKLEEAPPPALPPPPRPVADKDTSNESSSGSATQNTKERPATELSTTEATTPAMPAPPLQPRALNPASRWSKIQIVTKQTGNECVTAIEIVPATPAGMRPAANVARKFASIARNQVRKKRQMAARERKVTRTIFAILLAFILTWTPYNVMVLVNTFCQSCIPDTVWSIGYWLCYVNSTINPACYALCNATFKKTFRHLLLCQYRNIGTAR

[3] = target: T3, cloned human m2 muscarinic receptor (Homo sapiens, UniProt P08172); experiment: Muscarinic binding activity (3H-QNB displacement), m2
T3 sequence (P08172 1-466): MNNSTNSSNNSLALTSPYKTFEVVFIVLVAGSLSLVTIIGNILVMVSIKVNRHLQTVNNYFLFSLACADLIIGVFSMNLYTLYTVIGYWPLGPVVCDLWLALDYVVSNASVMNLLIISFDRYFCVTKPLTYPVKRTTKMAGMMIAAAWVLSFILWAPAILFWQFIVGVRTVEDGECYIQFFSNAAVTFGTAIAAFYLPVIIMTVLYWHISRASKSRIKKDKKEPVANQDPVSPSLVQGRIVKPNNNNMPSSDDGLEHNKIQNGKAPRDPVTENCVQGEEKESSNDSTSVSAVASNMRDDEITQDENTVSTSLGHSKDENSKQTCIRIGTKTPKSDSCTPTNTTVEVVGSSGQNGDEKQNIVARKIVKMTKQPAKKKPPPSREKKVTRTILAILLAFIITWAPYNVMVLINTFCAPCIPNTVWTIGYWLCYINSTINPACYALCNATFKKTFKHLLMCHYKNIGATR

[4] = system: Release of Acetyl Choline (ACh) from Striatum; experiment: Microdialysis: release of acetylcholine from striatum of conscious rats; type: in vivo, male Sprague-Dawley Rats; conditions: 10 mg/kg peritoneal, 3 rats, Isomer A
Experimental: The skull was exposed and drilled through to the dura at a point 0.2 mm anterior and 3.0 mm lateral to the bregma. At these coordinates, a guide cannula was positioned at the outer edge of the dura through the drilled opening, lowered perpendicularly to a depth of 2.5 mm, and permanently secured with dental cement to bone screws. Following the surgery, rats were given ampicillin (40 mg/kg, ip) and individually housed in modified cages. A recovery period of approximately 3 to 7 days was allowed before the microdialysis procedure was undertaken. • Microdialysis: All of the equipment and instrumentation used to conduct in vivo microdialysis was obtained from Bioanalytical Systems, Inc. (BAS). The microdialysis procedure required the insertion through the guide cannula of a thin, needle-like perfusable probe (CMA/12.3 mm x 0.5 mm) to a depth of 3 mm in striatum beyond the end of the guide. The probe was connected beforehand with tubing to a microinjection pump (CMA-/100). Rats were collared and tethered, and, following probe insertion, were placed in a large clear plexiglass bowl with litter material and access to food and water. The probe was perfused at 2 µl/min with Ringer's buffer (NaCl 147 mM; KCI 3.0 mM; CaCl2 1.2 mM; MgCl2 1.0 mM) containing 5.5 mM glucose, 0.2 mM L-ascorbate, and 1 µM neostigmine bromide at pH 7.4. To achieve stable baseline readings, microdialysis was allowed to proceed for 90 minutes prior to the collection of fractions. Fractions (20 µl) were obtained at 10-minute intervals over a 3-hour period using a refrigerated collector (CMA/170 or 200). Following the collection of four to five baseline fractions, the drug or combination of drugs to be tested was administered to the animal. Once collection was complete, each rat was autopsied to determine how accurately the probe was placed. • Acetylcholine (ACh) analysis: The concentration of ACh in collected samples of microdialysate was determined using HPLC/electrochemical detection. Samples were auto-injected (Waters 712 Refrigerated Sample Processor) onto a polymeric analytical HPLC column (BAS, MF-6150) and eluted with 50 mM Na2HPO4, pH 8.5. To prevent bacterial growth, Kathon CG reagent (0.005%) (BAS) was included in the mobile phase. Eluate from the analytical column, containing separated ACh and choline, was then immediately passed through an immobilized enzyme reactor cartridge (BAS, MF-6151) coupled to the column outlet. The reactor contained both acetylcholinesterase and choline oxidase covalently bound to a polymeric backbone. […] Data acquisition was carried out using an IBM Model 70 computer equipped with a microchannel IEEE board. Integration and quantification of peaks were accomplished using "Maxima" chromatography software (Waters Corporation). Total run time per sample was 11 minutes at a flow rate of 1 ml/min. Retention times for acetylcholine and choline were 6.5 and 7.8 minutes respectively. To monitor and correct for possible changes in detector sensitivity during chromatography, ACh standards were included at the beginning, middle and end of each sample queue.
Increases in ACh levels are consistent with presynaptic m2 receptor antagonism.

[5] = membranes of transfected CHO cells, read-out: Ki m1
[6] = membranes of transfected CHO cells, read-out: Ki m4
[7] = membranes of transfected CHO cells, read-out: Ki m2

Row | Structure (SMILES) | Ki [1, 5] [nM] | Ki [2, 6] [nM] | Ki [3, 7] [nM] | also measured
1 | c1cnc(Oc2ccc3c(c2)CCC3N2CCN(C3CCCCC3)CC2)nc1 (single isomer, unassigned) [Compound 10] | 151 | 17 | 11.5 | 
2 | c1cnc(Oc2ccc3c(c2)CCC3N2CCN(C3CCCCC3)CC2)nc1 (single isomer, unassigned) [Compound 11] | 314 |  | 88 | 
3 | COc1ccc(S(=O)(=O)c2ccc3c(c2)CCC3N2CCN(C3CCCCC3)C[C@H]2C)cc1 (single isomer, unassigned) [Compound 14] |  |  |  | Ki ([1]; Ki m1, membranes of transfected CHO cells): 112 nM; Ki ([2]; Ki m4, membranes of transfected CHO cells): 16 nM; Ki ([3]; Ki m2, membranes of transfected CHO cells): 6.1 nM; Mean % of baseline ([4]; sample collection time 20 min (control, first baseline, before injection)): 99.47 % of baseline; Mean % of baseline ([4]; sample collection time 30 min (control, second baseline, before injection)): 100.85 % of baseline; Mean % of baseline ([4]; sample collection time 40 min (control, third baseline, before injection)): 99.71 % of baseline; Mean % of baseline ([4]; sample collection time 50 min (compounds injected at 50 minutes)): 99.20 % of baseline; Mean % of baseline ([4]; sample collection time 60 min, injected at 50 min): 100.78 % of baseline; Mean % of baseline ([4]; sample collection time 70 min, injected at 50 min): 86.66 % of baseline; Mean % of baseline ([4]; sample collection time 80 min, injected at 50 min): 95.26 % of baseline; Mean % of baseline ([4]; sample collection time 90 min, injected at 50 min): 95.90 % of baseline; Mean % of baseline ([4]; sample collection time 100 min, injected at 50 min): 102.30 % of baseline; Mean % of baseline ([4]; sample collection time 110 min, injected at 50 min): 108.24 % of baseline; Mean % of baseline ([4]; sample collection time 120 min, injected at 50 min): 85.62 % of baseline; Mean % of baseline ([4]; sample collection time 130 min, injected at 50 min): 103.94 % of baseline; Mean % of baseline ([4]; sample collection time 140 min, injected at 50 min): 99.35 % of baseline; Mean % of baseline ([4]; sample collection time 150 min, injected at 50 min): 91.47 % of baseline; Mean % of baseline ([4]; sample collection time 160 min, injected at 50 min): 90.80 % of baseline; Mean % of baseline ([4]; sample collection time 170 min, injected at 50 min): 89.0 % of baseline; Mean % of baseline ([4]; sample collection time 180 min, injected at 50 min): 83.13 % of baseline
4 | O=S(=O)(c1ccccc1)c1ccc2c(c1)CCC2N1CCN(CCO)CC1 (stereo not shown) [Compound 1] | 356 | 106 | 79 | 
5 | O=[N+]([O-])c1ccc(Oc2ccc3c(c2)OCCC3N2CCN(C3CCCCC3)CC2)cc1 (stereo not shown) [Compound 2, 1-Cyclohexyl-4-[7-[(4-nitrophenyl)oxy]-chroman-4-yl]-piperazine] | 42 |  | 27 | 
6 | Nc1ccc(Oc2ccc3c(c2)OCCC3N2CCN(C3CCCCC3)CC2)cc1 (stereo not shown) [Compound 3] | 82 | 37 | 130 | 
7 | CC(=O)Nc1ccc(Oc2ccc3c(c2)OCCC3N2CCN(C3CCCCC3)CC2)cc1 (stereo not shown) [Compound 4] | 223 | > 200 | 224 | 
8 | c1cnc(Oc2ccc3c(c2)CCCC3N2CCN(C3CCCCC3)CC2)nc1 (stereo not shown) [Compound 5, 4-Cyclohexyl-1-piperazinyl-[6-[(2-pyrimidinyl)oxy]]-1,2,3,4-tetrahydronaphthalene] | 160 | 35 | 21 | 
9 | O=[N+]([O-])c1ccc(Oc2ccc3c(c2)CCCC3N2CCN(C3CCCCC3)CC2)cc1 (stereo not shown) [Compound 6] | 633 | 77 | 96 | 
10 | Nc1ccc(Oc2ccc3c(c2)CCCC3N2CCN(C3CCCCC3)CC2)cc1 (stereo not shown) [Compound 7] | 105 | 21 | 26 | 
11 | c1cnc(Oc2ccc3c(c2)CCC3N2CCN(C3CCCCC3)CC2)nc1 (stereo not shown) [Compound 9] | 265 |  | 35 | 
12 | c1cnc(Oc2ccc3c(c2)CC(CC2CCCCC2)C3N2CCN(C3CCCCC3)CC2)nc1 (stereo not shown) [Compound 12, 2-[[1-(4-Cyclohexyl-1-piperazinyl)-2-(cyclohexylmethyl)-2,3-dihydro-1H-inden-5-yl]oxy]pyrimidine] | 173 |  | 92 | 
13 | COc1ccc(S(=O)(=O)c2ccc3c(c2)CCC3N2CCC(N3CCCCC3)CC2)cc1 (stereo not shown) [Compound 13] | 67 | 33 | 17 | 
